According to ChEMBL document CHEMBL1201862, “PubChem BioAssay data set” (2004):
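1) Cells in 96-well plates. 2) Compound, 48 h, 5 concentrations. 3) Linear interpolation between surrounding doses. 4) Unreached endpoint = highest concentration. At the GI50, growth is halved.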 Activity calls are given as the source filed them. Rule as the data show it: active = GI50 up to about 1.1 µM and inactive = higher.

Legend:
Experiment in all cases: NCI anticancer screen, dose series, 48 h
A498 = system: A498
A549 = system: A549
DU-145 = system: DU-145
HCT-116 = system: HCT-116
HOP-92 = system: HOP-92
K562 = system: K562
LOX IMVI = system: LOX IMVI
M14 = system: M14
MDA-MB-435 = system: MDA-MB-435
MOLT-4 = system: MOLT-4
NCI-H226 = system: NCI-H226
NCI-H23 = system: NCI-H23
OVCAR-4 = system: OVCAR-4
RPMI-8226 = system: RPMI-8226
SF-268 = system: SF-268
SF-539 = system: SF-539
SK-MEL-2 = system: SK-MEL-2
SNB-75 = system: SNB-75
UACC-257 = system: UACC-257
TK-10 = system: TK-10

Compound	GI50 (A498)	GI50 (A549)	GI50 (DU-145)	GI50 (HCT-116)	GI50 (HOP-92)	GI50 (K562)	GI50 (LOX IMVI)	GI50 (M14)	GI50 (MDA-MB-435)	GI50 (MOLT-4)	GI50 (NCI-H226)	GI50 (NCI-H23)	GI50 (OVCAR-4)	GI50 (RPMI-8226)	GI50 (SF-268)	GI50 (SF-539)	GI50 (SK-MEL-2)	GI50 (SNB-75)	GI50 (UACC-257)	GI50 (TK-10)
CC(=O)OC(=C(C#N)C#N)c1nccnc1C(=O)O	> 100 µM (inactive)	> 100 µM (inactive)	> 100 µM (inactive)	> 100 µM (inactive)	> 100 µM (inactive)	> 100 µM (inactive)	> 100 µM (inactive)	> 100 µM (inactive)	> 100 µM (inactive)	> 100 µM (inactive)	> 100 µM (inactive)	> 100 µM (inactive)	> 100 µM (inactive)	> 100 µM (inactive)	> 100 µM (inactive)	> 100 µM (inactive)	> 100 µM (inactive)	95.7 µM (inactive)	> 100 µM (inactive)	
CSc1ncc2c(n1)sc1c(=O)n(-c3ccccc3)cnc12	> 100 µM (inactive)	> 100 µM (inactive)	> 100 µM (inactive)	> 100 µM (inactive)	> 100 µM (inactive)	> 100 µM (inactive)	> 100 µM (inactive)	> 100 µM (inactive)	> 100 µM (inactive)	> 100 µM (inactive)	> 100 µM (inactive)	> 100 µM (inactive)	> 100 µM (inactive)	> 100 µM (inactive)	> 100 µM (inactive)		> 100 µM (inactive)	> 100 µM (inactive)	> 100 µM (inactive)	> 100 µM (inactive)
CC(=O)NC1C(OCc2ccccc2)OC(CO)C(O)C1OCC(=O)NC(C(=O)NC(CCC(=O)NCCCCCC(=O)Nc1ccc2c(c1)CN1C(=O)c3ccccc3C1=N2)C(N)=O)C(C)C (stereo not drawn)	24.9 µM (inactive)	41.4 µM (inactive)	63.8 µM (inactive)	36.2 µM (inactive)	95.7 µM (inactive)	36 µM (inactive)	34.4 µM (inactive)	40.6 µM (inactive)	31.6 µM (inactive)	> 100 µM (inactive)		35.3 µM (inactive)	21.9 µM (inactive)	97.7 µM (inactive)	19.7 µM (inactive)	19.1 µM (inactive)	27.1 µM (inactive)	22 µM (inactive)	25.9 µM (inactive)	18.3 µM (inactive)
O=C(/N=C1/OC(CN2CCOCC2)CN1C(=O)Nc1ccccc1)Nc1ccccc1 (stereo not drawn)	> 100 µM (inactive)	> 100 µM (inactive)	> 100 µM (inactive)	> 100 µM (inactive)	94.6 µM (inactive)	> 100 µM (inactive)	> 100 µM (inactive)	> 100 µM (inactive)	> 100 µM (inactive)	> 100 µM (inactive)	> 100 µM (inactive)	> 100 µM (inactive)	> 100 µM (inactive)	> 100 µM (inactive)	> 100 µM (inactive)		> 100 µM (inactive)	54.7 µM (inactive)	> 100 µM (inactive)	> 100 µM (inactive)
CN(CCCNC(=O)c1nn(-c2ccccc2)c2c1Cc1ccccc1-2)CCCNC(=O)c1nn(-c2ccccc2)c2c1Cc1ccccc1-2	1.69 µM (inactive)	1.66 µM (inactive)	1.7 µM (inactive)	1.65 µM (inactive)	1.57 µM (inactive)	0.55 µM (active)	1.51 µM (inactive)	1.05 µM (active)	1.23 µM (inactive)	1.12 µM (active)		1.57 µM (inactive)	0.929 µM (active)	1.72 µM (inactive)	1.63 µM (inactive)	1.59 µM (inactive)	1.69 µM (inactive)	1.36 µM (inactive)	1.72 µM (inactive)	1.74 µM (inactive)
CC1=CCC(C)=Nc2nc3ccccc3n21	> 100 µM (inactive)	> 100 µM (inactive)	> 100 µM (inactive)	> 100 µM (inactive)	> 100 µM (inactive)	> 100 µM (inactive)	> 100 µM (inactive)	> 100 µM (inactive)	> 100 µM (inactive)	> 100 µM (inactive)	> 100 µM (inactive)	> 100 µM (inactive)	> 100 µM (inactive)	> 100 µM (inactive)	> 100 µM (inactive)	> 100 µM (inactive)	> 100 µM (inactive)		> 100 µM (inactive)	> 100 µM (inactive)
CCc1n[nH]c(=O)n1N1C(=O)C2CCCCC2C1=O (stereo not drawn)	> 100 µM (inactive)	> 100 µM (inactive)	> 100 µM (inactive)	> 100 µM (inactive)	> 100 µM (inactive)	> 100 µM (inactive)	> 100 µM (inactive)	> 100 µM (inactive)	> 100 µM (inactive)	> 100 µM (inactive)	> 100 µM (inactive)	> 100 µM (inactive)	> 100 µM (inactive)	> 100 µM (inactive)	> 100 µM (inactive)		> 100 µM (inactive)	> 100 µM (inactive)	> 100 µM (inactive)	> 100 µM (inactive)
